Source: patent US20220348584A1, “PERK INHIBITING INDOLINYL COMPOUNDS” (HiberCell, Inc., priority 2019, published 2022)
pIC50: −log10 of the molar value. Like-named read-outs stand apart in the source and are kept apart here.

What was measured:
[1] = target: T1, EIF2AK3 (PERK) catalytic domain (amino acids 536-1116) (Homo sapiens, UniProt Q9NZJ5); test: PERK In Vitro Activity Assay (Isolated), TR-FRET kinase assay; type: biochemical; conditions: isolated PERK enzyme, 1.5 μM ATP, read-out: Biochemical IC50
T1 construct: EIF2AK3 (PERK) catalytic domain (amino acids 536-1116); purchased Invitrogen, Carlsbad, Calif
T1 sequence (Q9NZJ5 536-1116): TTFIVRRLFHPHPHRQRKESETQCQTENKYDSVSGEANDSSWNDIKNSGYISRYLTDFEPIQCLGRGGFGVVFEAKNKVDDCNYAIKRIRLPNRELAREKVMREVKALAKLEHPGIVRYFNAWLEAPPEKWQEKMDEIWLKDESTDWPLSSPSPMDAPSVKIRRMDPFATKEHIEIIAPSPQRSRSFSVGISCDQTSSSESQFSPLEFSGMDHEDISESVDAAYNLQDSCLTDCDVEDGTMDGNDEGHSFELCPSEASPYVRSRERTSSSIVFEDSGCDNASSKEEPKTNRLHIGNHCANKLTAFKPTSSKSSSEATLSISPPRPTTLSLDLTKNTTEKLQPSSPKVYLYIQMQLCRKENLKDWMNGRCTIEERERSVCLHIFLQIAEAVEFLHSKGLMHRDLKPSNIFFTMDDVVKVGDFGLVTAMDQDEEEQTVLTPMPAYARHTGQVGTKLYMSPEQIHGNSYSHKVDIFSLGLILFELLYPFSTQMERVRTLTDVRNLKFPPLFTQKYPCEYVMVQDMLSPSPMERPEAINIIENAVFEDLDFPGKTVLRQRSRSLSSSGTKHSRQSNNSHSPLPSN
Protocol: Perform TR-FRET kinase assays in the absence or presence of inhibitors in a reaction buffer consisting of 50 mM HEPES, pH 7.5, 10 mM MgCb, 1.0 mM EGTA, and 0.01% Brij-35, and 100-200 nM GFP-eIF2a substrate. […] Add test compound, initiate the reaction by addition of enzyme, and incubate at room temperature for 45 minutes. Stop the reaction by addition of EDTA to a final concentration of 10 mM, add Terbium-labelled phospho-eIF2a antibody at a final concentration of 2 nM, and incubate for 90 minutes. Monitor the resulting fluorescence in an EnVison® Multilabel reader (PerkinElmer, Waltham, Mass.).

[2] = test system: HEK293-EGFP-eIF2a cells; test: PERK Cellular Assay (TR-FRET, GFP-eIF2α, tunicamycin-induced ER stress); type: cell-based, human; conditions: HEK293-EGFP-eIF2a cells, tunicamycin 2 hours, TR-FRET, read-out: Cellular eIF2α IC50
Protocol: Stable cell lines were created in HEK293 cells using lentiviral particles harboring an expression vector for GFP-eIF2α. Cells were selected using puromycin and enriched using fluorescence activated cell sorting against GFP. HEK293-EGFP-eIF2a cells were plated at 5000 cells/well in 384-well assay plates and incubated overnight at 37° C., 5% CO2. Inhibitor compounds were added to the wells by Echo acoustic dispensing and incubated for 30 minutes at 37° C., 5% CO2 prior to induction of ER stress by addition of tunicamycin to […] for 2 hours. Cells were lysed and TR-FRET was measured in an EnVision plate reader (PerkinElmer). FRET ratio data was normalized to signal from lysates treated with DMSO vehicle control and plotted as percent inhibition against 10-point; 3-fold dilution series of inhibitors. IC50 values were calculated using 4-parameter logistical fitting in XLFit.

pIC50 [1] | Compound | pIC50 [2] | pIC50 ([2]; Homo sapiens, 2 h)
6.60 to 7.00 | Cn1cc(-c2ccc3c(c2F)CCN3C(=O)C(N)c2ccccc2)c2c(N)ncnc21 (single isomer, unassigned) [Example 4, 2-amino-1-(5-(4-amino-7-methyl-7H-pyrrolo[2,3-d]pyrimidin-5-yl)-4-fluoroindolin-1-yl)-2-phenylethanone] | 7.00 to 7.29 | –
7.30 to 7.59 | Cc1cccc(CC(=O)N2CCc3c2ccc(-c2nc(C)n4ccnc(N)c24)c3F)n1 [Example 23, 1-(5-(8-amino-3-methylimidazo[1,5-a]pyrazin-1-yl)-4-fluoroindolin-1-yl)-2-(6-methylpyridin-2-yl)ethanone] | – | 7.30 to 7.59
7.00 to 7.29 | Cn1cc(-c2ccc3c(c2F)CCN3C(=O)C(N)c2ccccc2)c2c(N)ncnc21 (single isomer, unassigned) [Example 3, 2-amino-1-(5-(4-amino-7-methyl-7H-pyrrolo[2,3-d]pyrimidin-5-yl)-4-fluoroindolin-1-yl)-2-phenylethanone] | – | 7.00 to 7.29
7.00 to 7.29 | Cn1cc(-c2ccc3c(c2F)CCN3C(=O)C(O)c2ccccc2)c2c(N)ncnc21 (single isomer, unassigned) [Example 2, 1-(5-(4-amino-7-methyl-7H-pyrrolo[2,3-d]pyrimidin-5-yl)-4-fluoroindolin-1-yl)-2-hydroxy-2-phenylethanone] | 6.60 to 7.00 | –
7.30 to 7.59 | Cc1cn2c(C3CC(C)(O)C3)nc(-c3ccc4c(c3F)CCN4C(=O)C(O)c3cccc(F)c3)c2c(N)n1 (single isomer, unassigned) [Example 13, 1-(5-(8-amino-3-(3-hydroxy-3-methylcyclobutyl)-6-methylimidazo[1,5-a]pyrazin-1-yl)-4-fluoroindolin-1-yl)-2-(3-fluorophenyl)-2-hydroxyethanone] | 6.30 to 6.60 | –
7.00 to 7.29 | Cc1cccc(C(O)C(=O)N2CCc3c2ccc(-c2nc(C4CC(C)(O)C4)n4cc(C)nc(N)c24)c3F)n1 (single isomer, unassigned) [Example 17, 1-(5-(8-amino-3-(3-hydroxy-3-methylcyclobutyl)-6-methylimidazo[1,5-a]pyrazin-1-yl)-4-fluoroindolin-1-yl)-2-hydroxy-2-(6-methylpyridin-2-yl)ethanone] | – | < 5.30
